In paper PMC4620497 (Scientific Reports, 2015):

Key:
IGF1R = biological target: T1, IGF1R (Homo sapiens, UniProt P08069); parameters: method as in earlier work; conditions: Table S1; cited from earlier work
T1 construct: DNA tag (qPCR read-out); purchased Ambit Biosciences (KINOMEscan service)

BMPR1B = biological target: T2, BMPR1B (Homo sapiens, UniProt O00238); assay: KINOMEscan panel screen; type: binding; conditions: read-out: Percent Control(%)
T2 construct: purchased DiscoveRx KINOMEscan (Ambit Biosciences)

DLK = biological target: T3, DLK (Homo sapiens, UniProt Q12852); assay: KINOMEscan panel screen; type: binding; conditions: read-out: Percent Control(%)
T3 sequence (Q12852 1-859): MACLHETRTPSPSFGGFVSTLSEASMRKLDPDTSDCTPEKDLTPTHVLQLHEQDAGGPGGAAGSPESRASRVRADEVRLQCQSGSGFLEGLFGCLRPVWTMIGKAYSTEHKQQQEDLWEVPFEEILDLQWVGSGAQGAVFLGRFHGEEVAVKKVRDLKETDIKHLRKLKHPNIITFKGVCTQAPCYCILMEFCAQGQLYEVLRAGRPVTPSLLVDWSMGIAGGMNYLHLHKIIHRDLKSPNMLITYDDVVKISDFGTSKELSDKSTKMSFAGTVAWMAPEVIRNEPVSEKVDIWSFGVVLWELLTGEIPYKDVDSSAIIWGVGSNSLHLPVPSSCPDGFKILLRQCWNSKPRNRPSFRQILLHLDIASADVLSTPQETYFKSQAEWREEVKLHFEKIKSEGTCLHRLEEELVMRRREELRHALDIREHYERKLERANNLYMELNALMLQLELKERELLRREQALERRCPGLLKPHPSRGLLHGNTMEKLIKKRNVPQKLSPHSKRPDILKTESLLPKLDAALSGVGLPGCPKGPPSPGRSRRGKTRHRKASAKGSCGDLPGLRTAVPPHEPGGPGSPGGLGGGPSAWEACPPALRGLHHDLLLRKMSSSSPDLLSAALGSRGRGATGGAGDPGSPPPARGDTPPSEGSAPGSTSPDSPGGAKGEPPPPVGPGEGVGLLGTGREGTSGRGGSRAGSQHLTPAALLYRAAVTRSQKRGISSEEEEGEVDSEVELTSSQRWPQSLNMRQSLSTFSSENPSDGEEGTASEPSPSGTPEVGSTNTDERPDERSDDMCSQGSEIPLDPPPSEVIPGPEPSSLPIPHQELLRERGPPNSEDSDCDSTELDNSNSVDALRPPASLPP

EGFR(G719S) = biological target: T4, EGFR(G719S) (Homo sapiens, UniProt P00533, G719S); assay: KINOMEscan panel screen; type: binding; conditions: read-out: Percent Control(%)
T4 construct: purchased DiscoveRx KINOMEscan (Ambit Biosciences)

JNK3 = biological target: T5, JNK3 (Homo sapiens, UniProt P53779); assay: KINOMEscan panel screen; type: binding; conditions: read-out: Percent Control(%)
T5 construct: purchased DiscoveRx KINOMEscan (Ambit Biosciences)

KIT(D816H) = biological target: T6, KIT(D816H) (Homo sapiens, UniProt P10721, D816H); assay: KINOMEscan panel screen; type: binding; conditions: read-out: Percent Control(%)
T6 construct: purchased DiscoveRx KINOMEscan (Ambit Biosciences)

KIT(V559D) = biological target: T7, KIT(V559D) (Homo sapiens, UniProt P10721, V559D); assay: KINOMEscan panel screen; type: binding; conditions: read-out: Percent Control(%)
T7 construct: purchased DiscoveRx KINOMEscan (Ambit Biosciences)

MTOR = biological target: T8, MTOR (Homo sapiens, UniProt P42345); assay: KINOMEscan panel screen; type: binding; conditions: read-out: Percent Control(%)
T8 construct: purchased DiscoveRx KINOMEscan (Ambit Biosciences)

PCTK3 = biological target: T9, PCTK3 (Homo sapiens, UniProt Q07002); assay: KINOMEscan panel screen; type: binding; conditions: read-out: Percent Control(%)
T9 construct: purchased DiscoveRx KINOMEscan (Ambit Biosciences)

PIK4CB = biological target: T10, PIK4CB (Homo sapiens, UniProt Q9UBF8); assay: KINOMEscan panel screen; type: binding; conditions: read-out: Percent Control(%)
T10 construct: purchased DiscoveRx KINOMEscan (Ambit Biosciences)

YANK3 = biological target: T11, YANK3 (Homo sapiens, UniProt Q86UX6); assay: KINOMEscan panel screen; type: binding; conditions: read-out: Percent Control(%)
T11 construct: purchased DiscoveRx KINOMEscan (Ambit Biosciences)

KG-1 SP cells = assay: Hoechst 33342 side population (SP) cell assay; type: cell-based, human; conditions: 5 μM, 48 h; vehicle 3.1%
Description: (§1) Flow cytometry and Hoechst 33342 dye efflux assays were used to examine the possible influences of SKLB-677 on leukemia SP cells. This method is based on the findings that stem cells and early progenitors are able to pump out Hoechst via the ATP-Binding Cassette (ABC) transporters. This property allows the observation of a cell population (called side population) that has low Hoechst fluorescence in the blue and red regions of the spectrum. In this study, the Hoechst SP cell assays were performed with human AML MV4-11 and KG-1 cells, as well as primary AML PBMCs. […] As shown in Fig. 4a and Supplementary Fig. S6, MV4-11, KG-1, and primary AML PBMCs contained about 22.3%, 3.1%, and 0.5% SP cells, respectively.
(§2) Supplementary Mat eri al and Methods […]
(§3) Reactions were monitored by thin la yer chrom atograph y (TLC) on M erck silica gel 60 F-254 thin la yer plates. 1H NMR and 13C NMR spectra were recorded on a Bruker AV -400 spectrometer at 400 MHz and 100 MHz, respectivel y. […]
(§4) Lo w -resolution and high-resolution mass spectral (MS) data were determined on an Agilent 1100 Series LCMS with UV detection at 254nm in low -reson ance electrospray mode (ESI). All final compounds were purified to >95% purity, as determined b y hi gh- performance liquid chromatograph y (HP LC). […]

[1] = test system: primary AML PBMCs SP cells; assay: Hoechst 33342 side population (SP) cell assay; type: cell-based, human; conditions: 5 μM, 48 h; vehicle 0.5%
Description: as §1, §2, §3, §4

T5 sequence (P53779 whole entry): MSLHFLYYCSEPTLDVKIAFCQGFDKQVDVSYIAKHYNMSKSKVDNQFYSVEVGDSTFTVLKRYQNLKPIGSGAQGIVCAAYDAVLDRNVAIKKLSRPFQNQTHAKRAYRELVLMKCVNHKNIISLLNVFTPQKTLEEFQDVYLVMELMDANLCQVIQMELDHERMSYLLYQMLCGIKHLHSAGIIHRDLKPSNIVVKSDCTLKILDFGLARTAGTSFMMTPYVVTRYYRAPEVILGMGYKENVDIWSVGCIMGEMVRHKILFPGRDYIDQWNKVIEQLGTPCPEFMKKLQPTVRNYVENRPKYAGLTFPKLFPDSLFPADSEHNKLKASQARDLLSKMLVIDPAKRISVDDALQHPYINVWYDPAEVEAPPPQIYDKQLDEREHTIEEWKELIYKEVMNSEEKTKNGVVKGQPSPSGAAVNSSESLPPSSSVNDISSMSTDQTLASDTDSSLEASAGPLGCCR
T9 sequence (Q07002 whole entry): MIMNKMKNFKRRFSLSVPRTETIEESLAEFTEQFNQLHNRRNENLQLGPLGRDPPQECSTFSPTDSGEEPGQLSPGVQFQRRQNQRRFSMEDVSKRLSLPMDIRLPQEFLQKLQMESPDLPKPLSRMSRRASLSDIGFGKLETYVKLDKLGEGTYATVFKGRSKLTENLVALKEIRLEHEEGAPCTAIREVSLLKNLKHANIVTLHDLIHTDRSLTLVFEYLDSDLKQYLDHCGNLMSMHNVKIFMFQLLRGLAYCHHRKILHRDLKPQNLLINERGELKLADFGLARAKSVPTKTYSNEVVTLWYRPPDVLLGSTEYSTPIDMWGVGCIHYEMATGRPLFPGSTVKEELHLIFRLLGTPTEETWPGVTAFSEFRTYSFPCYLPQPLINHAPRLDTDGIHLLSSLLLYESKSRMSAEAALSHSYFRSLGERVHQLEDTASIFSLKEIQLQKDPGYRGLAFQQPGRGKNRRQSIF
T6 sequence (P10721 26-976 D816H): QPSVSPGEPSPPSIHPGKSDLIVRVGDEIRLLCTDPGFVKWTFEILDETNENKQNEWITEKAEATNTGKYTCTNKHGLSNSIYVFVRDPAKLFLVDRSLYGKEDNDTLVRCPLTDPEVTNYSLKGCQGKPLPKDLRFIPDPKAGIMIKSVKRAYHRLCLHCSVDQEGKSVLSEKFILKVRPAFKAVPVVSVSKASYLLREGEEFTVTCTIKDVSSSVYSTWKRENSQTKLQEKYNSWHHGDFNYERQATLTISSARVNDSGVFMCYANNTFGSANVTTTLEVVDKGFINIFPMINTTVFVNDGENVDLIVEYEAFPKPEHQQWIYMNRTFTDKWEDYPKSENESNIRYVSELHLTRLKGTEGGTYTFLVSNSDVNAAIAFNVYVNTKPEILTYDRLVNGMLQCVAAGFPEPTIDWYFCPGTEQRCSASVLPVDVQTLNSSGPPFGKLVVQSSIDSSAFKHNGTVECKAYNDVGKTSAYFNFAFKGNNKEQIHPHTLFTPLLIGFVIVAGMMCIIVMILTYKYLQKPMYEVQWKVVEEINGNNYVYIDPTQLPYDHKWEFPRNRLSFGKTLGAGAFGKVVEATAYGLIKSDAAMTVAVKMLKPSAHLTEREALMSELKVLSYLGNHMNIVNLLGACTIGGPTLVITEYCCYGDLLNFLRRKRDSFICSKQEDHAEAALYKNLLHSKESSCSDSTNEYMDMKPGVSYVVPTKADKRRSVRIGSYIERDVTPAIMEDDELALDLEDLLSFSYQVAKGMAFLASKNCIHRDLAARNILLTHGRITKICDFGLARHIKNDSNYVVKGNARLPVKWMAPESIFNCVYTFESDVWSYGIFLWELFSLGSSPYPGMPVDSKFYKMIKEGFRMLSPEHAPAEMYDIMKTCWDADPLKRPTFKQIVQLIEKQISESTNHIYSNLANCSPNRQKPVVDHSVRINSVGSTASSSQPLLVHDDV
T11 sequence (Q86UX6 whole entry): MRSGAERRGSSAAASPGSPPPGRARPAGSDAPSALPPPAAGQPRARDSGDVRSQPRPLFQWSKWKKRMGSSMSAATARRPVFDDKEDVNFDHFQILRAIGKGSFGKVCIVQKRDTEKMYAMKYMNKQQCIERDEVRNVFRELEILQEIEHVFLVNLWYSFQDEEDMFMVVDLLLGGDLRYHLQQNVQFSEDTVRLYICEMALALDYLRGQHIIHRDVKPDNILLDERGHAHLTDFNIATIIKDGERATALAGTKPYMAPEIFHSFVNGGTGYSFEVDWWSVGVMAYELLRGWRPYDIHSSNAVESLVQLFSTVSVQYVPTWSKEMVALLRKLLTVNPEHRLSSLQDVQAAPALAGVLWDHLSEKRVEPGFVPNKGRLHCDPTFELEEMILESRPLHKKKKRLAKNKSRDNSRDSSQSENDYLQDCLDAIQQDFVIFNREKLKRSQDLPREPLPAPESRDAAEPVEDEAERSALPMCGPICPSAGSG
T7 sequence (P10721 26-976 V559D): as the sequence (P10721 26-976 D816H) above, with V534D, H791D counted along it
T4 sequence (P00533 25-1210 G719S): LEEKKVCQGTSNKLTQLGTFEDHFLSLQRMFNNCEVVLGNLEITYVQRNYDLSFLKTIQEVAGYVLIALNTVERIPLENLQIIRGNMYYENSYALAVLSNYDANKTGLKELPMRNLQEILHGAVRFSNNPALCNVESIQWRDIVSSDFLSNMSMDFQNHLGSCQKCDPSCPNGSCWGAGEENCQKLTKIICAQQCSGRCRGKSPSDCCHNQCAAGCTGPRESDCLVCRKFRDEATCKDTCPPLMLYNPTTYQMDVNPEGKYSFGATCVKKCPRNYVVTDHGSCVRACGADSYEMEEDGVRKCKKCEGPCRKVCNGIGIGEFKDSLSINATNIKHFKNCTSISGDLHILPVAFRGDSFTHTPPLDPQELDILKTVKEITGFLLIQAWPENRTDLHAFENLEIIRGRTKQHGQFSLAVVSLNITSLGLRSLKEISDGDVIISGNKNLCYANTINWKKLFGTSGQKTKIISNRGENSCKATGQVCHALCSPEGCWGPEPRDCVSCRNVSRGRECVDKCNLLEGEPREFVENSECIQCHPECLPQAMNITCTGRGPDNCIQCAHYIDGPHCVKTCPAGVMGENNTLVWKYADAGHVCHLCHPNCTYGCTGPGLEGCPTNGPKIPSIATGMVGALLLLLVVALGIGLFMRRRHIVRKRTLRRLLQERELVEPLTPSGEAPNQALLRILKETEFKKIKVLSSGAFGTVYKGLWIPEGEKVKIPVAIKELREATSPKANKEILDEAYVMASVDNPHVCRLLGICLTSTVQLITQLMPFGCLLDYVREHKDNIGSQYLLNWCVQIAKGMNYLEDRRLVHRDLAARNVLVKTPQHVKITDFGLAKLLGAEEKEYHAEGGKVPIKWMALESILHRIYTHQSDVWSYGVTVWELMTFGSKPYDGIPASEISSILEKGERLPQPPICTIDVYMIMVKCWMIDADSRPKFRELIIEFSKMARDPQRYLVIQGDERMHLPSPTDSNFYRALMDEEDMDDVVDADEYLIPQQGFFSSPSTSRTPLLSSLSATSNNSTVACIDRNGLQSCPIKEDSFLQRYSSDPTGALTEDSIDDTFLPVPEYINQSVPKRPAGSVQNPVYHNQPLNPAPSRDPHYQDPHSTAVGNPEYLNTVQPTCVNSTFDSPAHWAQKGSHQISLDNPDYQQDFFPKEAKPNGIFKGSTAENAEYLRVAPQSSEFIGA
T2 sequence (O00238 14-502): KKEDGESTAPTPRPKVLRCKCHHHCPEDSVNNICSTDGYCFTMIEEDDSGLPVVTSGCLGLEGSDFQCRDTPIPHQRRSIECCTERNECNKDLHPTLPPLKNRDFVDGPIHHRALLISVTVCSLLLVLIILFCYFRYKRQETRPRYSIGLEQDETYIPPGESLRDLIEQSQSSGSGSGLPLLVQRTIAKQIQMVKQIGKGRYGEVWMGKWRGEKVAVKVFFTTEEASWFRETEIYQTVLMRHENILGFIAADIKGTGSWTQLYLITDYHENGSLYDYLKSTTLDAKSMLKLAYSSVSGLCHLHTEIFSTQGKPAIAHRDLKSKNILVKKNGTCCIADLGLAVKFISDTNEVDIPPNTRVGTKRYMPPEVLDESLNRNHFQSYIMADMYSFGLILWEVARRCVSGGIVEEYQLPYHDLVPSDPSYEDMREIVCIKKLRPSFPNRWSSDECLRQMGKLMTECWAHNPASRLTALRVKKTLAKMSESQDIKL
T10 sequence (Q9UBF8 whole entry): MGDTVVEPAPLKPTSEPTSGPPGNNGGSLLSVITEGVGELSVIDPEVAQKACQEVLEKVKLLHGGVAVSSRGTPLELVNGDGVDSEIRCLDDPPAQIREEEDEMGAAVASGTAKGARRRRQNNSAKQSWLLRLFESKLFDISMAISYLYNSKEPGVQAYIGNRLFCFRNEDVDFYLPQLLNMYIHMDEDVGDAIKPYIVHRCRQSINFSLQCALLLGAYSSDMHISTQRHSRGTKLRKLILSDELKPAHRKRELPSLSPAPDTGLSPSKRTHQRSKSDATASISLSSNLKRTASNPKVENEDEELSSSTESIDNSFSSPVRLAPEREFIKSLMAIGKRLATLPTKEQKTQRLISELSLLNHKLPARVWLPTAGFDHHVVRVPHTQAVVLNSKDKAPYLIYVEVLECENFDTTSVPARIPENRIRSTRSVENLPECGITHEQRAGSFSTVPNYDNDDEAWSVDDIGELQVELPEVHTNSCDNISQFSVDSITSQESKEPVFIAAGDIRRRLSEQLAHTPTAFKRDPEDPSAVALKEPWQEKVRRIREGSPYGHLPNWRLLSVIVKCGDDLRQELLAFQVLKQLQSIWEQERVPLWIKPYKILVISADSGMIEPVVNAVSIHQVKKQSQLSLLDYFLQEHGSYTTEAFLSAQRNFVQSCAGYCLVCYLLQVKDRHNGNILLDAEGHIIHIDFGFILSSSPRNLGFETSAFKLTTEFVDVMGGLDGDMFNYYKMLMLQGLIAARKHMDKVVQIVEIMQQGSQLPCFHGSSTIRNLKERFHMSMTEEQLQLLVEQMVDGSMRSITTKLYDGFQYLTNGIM

| SMILES | IC50 (IGF1R) [µM] | remaining binding at 10 µM (BMPR1B) [%] | remaining binding at 10 µM (DLK) [%] | remaining binding at 10 µM (EGFR(G719S)) [%] | remaining binding at 10 µM (JNK3) [%] | remaining binding at 10 µM (KIT(D816H)) [%] | remaining binding at 10 µM (KIT(V559D)) [%] | remaining binding at 10 µM (MTOR) [%] | remaining binding at 10 µM (PCTK3) [%] | remaining binding at 10 µM (PIK4CB) [%] | remaining binding at 10 µM (YANK3) [%] | SP cells (KG-1 SP cells) | SP cells [1] |
| --- | --- | --- | --- | --- | --- | --- | --- | --- | --- | --- | --- | --- | --- |
| O=C(Nc1ccc(Oc2ncnc3[nH]ncc23)cc1)Nc1ccc(Cl)c(C(F)(F)F)c1 [Compound 1, 1-(4-(1H-pyrazolo[3,4-d]pyrimidin-4-yloxy)phenyl)-3-(4-chloro-3-(trifluoromethyl)phenyl)urea] | > 10 |  |  |  |  |  |  |  |  |  |  |  |  |
| CC(C)(C)c1cc(NC(=O)Nc2ccc(Oc3ncnc4[nH]ncc34)c(F)c2)no1 [SKLB-677, 1-(4-(1H-pyrazolo[3,4-d]pyrimidin-4-yloxy)-3-fluorophenyl)-3-(5-tert-butylisoxazol-3-yl)urea] |  | 88 | 86 | 47 | 18 | 8.4 | 0 | 100 | 0.05 | 52 | 97 | could almost eliminate SP cells | could almost eliminate SP cells |
